Source: patent US10287311B2, “Modified fluorinated nucleoside analogues” (priority 2003, dated 2019)
Like-named read-outs stand apart in the source and are kept apart here.

Columns and labels:
[1] = test system: West Nile virus; assay: Antiviral activity, West Nile virus in Vero cells; format: cell-based; settings: for EC50: West Nile virus, West Nile, Vero
[2] = test system: Dengue Type 2; assay: Antiviral activity, Dengue Type 2 in Vero cells; format: cell-based, Dengue virus; settings: for EC50: Dengue Type 2, Vero
[3] = test system: Yellow Fever virus; format: cell-based
[4] = test system: Influenza B; assay: microbe, parasite or virus in culture; format: cell-based; settings: MDCK
[5] = test system: Rhinovirus Type 2; assay: Antiviral activity, Rhinovirus Type 2 in KB cells; format: cell-based; settings: for EC50: Enterovirus, Rhinovirus Type 2, KB
[6] = test system: VEE; assay: organism not typed; format: cell-based; settings: Vero
[7] = test system: SARSCoV; assay: organism not typed; format: cell-based; settings: Vero
[8] = test system: BVDV; assay: (BVDV) yield reduction assay; format: cell-based, bovine viral diarrhea virus; settings: for EC90: Bovine viral diarrhea virus isolates and strains
Experimental: Madin-Darby Bovine Kidney (MDBK) cells were grown in Dulbecco's modified eagle medium supplemented with 10% horse serum and 100 μg/ml penicillin-streptomycin. Cells were seeded in a 96-well plate at 5×10^3 cells/well and incubated for 72h at 37° C. in a humidified 5% CO2 atmosphere. Cells were infected with either cytopathic (NADL strain) or noncytopathic (SD-1 strain) BVDV at a virus dilution of 10-2 and incubated for 45 min. Cell monolayers were washed three times with medium. Fresh medium-containing test compounds in dose response concentrations or ribavirin, as a positive control, were added to cultures and medium containing no drug was added to the no-drug controls. After 72h incubation, supernatant was collected and viral RNA was extracted using the QIAmp Viral RNA Mini Kit (Qiagen, CA). Viral load was determined by Q-RT-PCR using primers specific for either NADL or SD-1 (1).

[9] = test system: RSV; assay: Antiviral activity, RSV; format: cell-based; settings: human respiratory syncytial virus
[10] = test system: HIV; assay: microbe, parasite or virus in culture; format: cell-based
[11] = test system: HBV; assay: Antiviral activity, HBV; format: cell-based
[12] = test system: Coronavirus 229E; assay: Antiviral activity, Coronavirus 229E; format: cell-based
[13] = Cytotoxicity assay (MTS), all cell lines tested; format: cell-based; settings: human, bovine, African green monkey, Clone A, Huh7, HepG2, MDBK, PBM, CEM, Vero and MRC-5 cells; summary in text over all cell lines
Experimental: (§1) 50 μl of 2× drug dilutions were added per well in a 96 well plate. Final concentrations of drug ranged from 1 to 100 μM. A “no drug” (media only) control was used to determine the minimum absorbance values and a “cells+media only” control was used for maximum absorbance value. A solvent control was also used. Cells were then added (PBM: 5×10^4 cells/well; CEM: 2.5×10^3 cells/well; Vero, HepG2, Huh-7, and Clone A: 5×10^3 cells/well) and incubated at 37° C. in a humidified 5% CO2 atmosphere for 3-5 days (PBM: 5 days; CEM: 3 days, all others: 4 days). After incubation, 20 μl of MTS dye was added from Cell Titer Aqueous One Solution Cell Proliferation Assay to each well and the plate was re-incubated for 2-4 hours. The absorbance (490 nm) was then read on an ELISA plate reader using the media only/no cell wells as blanks. Percent inhibition was found and used to calculate the CC50.
In contrast is the relative toxicity of 2′-C-methyladenosine.

[14] = Cytotoxicity assay (MTS), CloneA; format: cell-based; settings: human, Clone A cells
Experimental: as §1

[15] = Cytotoxicity assay (MTS), Huh7; format: cell-based; settings: human, Huh7 cells
Experimental: as §1

[16] = Cytotoxicity assay (MTS), HepG2; format: cell-based; settings: human, HepG2 cells
Experimental: as §1

[17] = Cytotoxicity assay (MTS), MDBK; format: cell-based; settings: bovine, MDBK cells
[18] = Cytotoxicity assay (MTS), PBM; format: cell-based; settings: PBM cells
Experimental: as §1

[19] = Cytotoxicity assay (MTS), CEM; format: cell-based; settings: human, CEM cells
Experimental: as §1

[20] = Cytotoxicity assay (MTS), Vero; format: cell-based; settings: African green monkey, Vero cells
Experimental: as §1

[21] = Cytotoxicity assay (MTS), MRC-5; format: cell-based; settings: human, MRC-5 cells; MRC-5, MTS assay
[22] = test system: HepG2 cells; assay: Mitochondria toxicity assay; format: cell-based; settings: 7 days
Experimental: Fifty microliters of 2× drug dilutions were added per well in a 96 well plate. […] Ribosomal DNA levels were used to determine specific toxicity to mitochondria or generally cytotoxicity. HepG2 cells (5,000 cells/well at 50 μl) were added to the plate. The plate was incubated at 37° C. in a humidified 5% CO2 atmosphere for 7 days. After incubation, the supernatant was removed and stored for lactic acid quantification, and total DNA was extracted from cells as described in the RNeasy 96 handbook (February 1999), pages 22-23. No DNA digestions were performed, therefore total RNA and DNA were extracted. The extracted DNA was amplified and the change in mitochondrial DNA and ribosomal DNA for each sample was determined. The fold difference in mitochondrial DNA normalized for ribosomal DNA relative to control was calculated. Lactic acid quantification was performed by the D-Lactic Acid/L-Lactic acid test kit (Boehringer Mannheim/R-Biopharm/Roche). The total amount of lactic acid produced for each sample was found as well as the fold change in lactic acid production (% of lactic acid/% of rDNA) as described in the manufacturers instructions.

[23] = Pharmacokinetics in Rhesus monkeys; format: in vivo; settings: single oral dose 33.3 mg/kg, Mean ± SD, preliminary
Experimental: FIG. 3 depicts the pharmacokinetics of β-D-(2′R)-2′-deoxy-2′-fluoro-2′-C-methylcytidine in Rhesus monkeys given a single dose (33.3 mg/kg) oral or intravenous dose of β-D-(2′R)-2′-deoxy-2′-fluoro-2′-C-methylcytidine.

[24] = test system: Human bone marrow cells, BFU-E; assay: Bone marrow toxicity assay, BFU-E; format: cell-based; settings: Bone marrow cell
Experimental: (§2) The culture assays for CFU-GM and BFU-E are performed using a bilayer soft agar or methylcellulose method. Drugs are diluted in tissue culture medium and filtered. After 14 to 18 days at 37° C. in a humidified atmosphere of 5% CO2 in air, colonies of greater than 50 cells are counted using an inverted microscope. The results are presented as the percent inhibition of colony formation in the presence of drug compared to solvent control cultures.

[25] = test system: Human bone marrow cells, CFU-GM; assay: Bone marrow toxicity assay, CFU-GM; format: cell-based; settings: CFU-GM
Experimental: as §2

[26] = test system: Vero cells
[27] = test system: female Swiss mice
[28] = in vitro; settings: African green monkey
[29] = in vitro; settings: human
[30] = test system: replicon HCV RNA; assay: HCV replicon assay (clone not specified)
[31] = Cytotoxicity (CPE, Neutral Red) in KB cells of the antiviral tests; settings: human
[32] = Cytotoxicity (CPE, Neutral Red) in MDCK cells of the antiviral tests; settings: dog, MDCK cells
[33] = test system: MDCK cells; assay: as above; settings: MDCK, Influenza B test
[34] = biological target: HCV 1b NS5B polymerase, Wild-Type NS5B (Hepatitis C virus genotype 1b, UniProt Q9WMX2)
[35] = Neutral Red, read-out: EC50, NR

Chain of HCV 1b NS5B polymerase, Wild-Type NS5B (Q9WMX2 2420-3010): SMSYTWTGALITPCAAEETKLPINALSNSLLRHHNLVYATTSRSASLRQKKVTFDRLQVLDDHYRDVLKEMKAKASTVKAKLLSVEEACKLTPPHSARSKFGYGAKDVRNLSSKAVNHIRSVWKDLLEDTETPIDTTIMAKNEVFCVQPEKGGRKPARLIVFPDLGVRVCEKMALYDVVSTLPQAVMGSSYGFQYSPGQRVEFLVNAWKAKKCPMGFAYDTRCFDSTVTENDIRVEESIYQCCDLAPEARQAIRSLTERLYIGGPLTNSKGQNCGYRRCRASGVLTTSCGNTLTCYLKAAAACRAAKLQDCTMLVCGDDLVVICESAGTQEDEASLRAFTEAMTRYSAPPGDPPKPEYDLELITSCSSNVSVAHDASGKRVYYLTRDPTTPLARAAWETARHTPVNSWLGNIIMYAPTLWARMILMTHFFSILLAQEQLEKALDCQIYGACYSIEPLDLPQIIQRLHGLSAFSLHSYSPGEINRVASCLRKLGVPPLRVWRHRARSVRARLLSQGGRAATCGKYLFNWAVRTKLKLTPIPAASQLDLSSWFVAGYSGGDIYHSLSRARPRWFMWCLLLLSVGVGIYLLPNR

C[C@@]1(F)[C@H](O)[C@@H](CO)O[C@H]1n1ccc(N)nc1=O
activity against West Nile virus (in words) [1]: shows activity
EC50 ([1]; NR = Neutral Red, read-out: EC50, NR): 12 µM
EC50 ([1]; read-out: EC50, CPE): 32 µM
activity against Dengue virus (in words) [2]: shows activity
EC50 ([2]; read-out: EC50, CPE): 55 µM
EC50 ([2]; Dengue virus, Vero, Neutral Red, read-out: EC50, NR): > 100 µM
EC50 ([2]; Dengue virus, Vero, read-out: EC50, CPE): 32 µM
activity against Yellow Fever virus (in words) [3]: shows activity
EC50 [4, 35]: > 100 µM
EC50 ([4]; read-out: EC50, CPE): > 100 µM
activity against Rhinovirus (in words) [5]: shows activity
EC50 [5, 35]: 20 µM
EC50 ([5]; read-out: EC50, CPE): 25 µM
EC50 ([6]; read-out: EC50, CPE): > 100 µM
EC50 ([6]; read-out: EC50, NR): > 100 µM
EC50 ([7]; read-out: EC50, CPE): > 100 µM
EC50 ([7]; read-out: EC50, NR): > 100 µM
activity on HCV surrogate model BVDV (in words) [8]: lack of activity
EC90 ([8]; BVDVcp): > 100 µM
EC90 ([8]; BVDVncp): > 22 µM
EC90 [9]: > 100 µM
activity on HIV (in words) [10]: lack of activity
EC90 ([10]; Human immunodeficiency virus 1, HIV): > 100 µM
activity on HBV (in words) [11]: lack of activity
EC90 ([11]; Hepatitis B virus, HBV): > 10 µM
activity on Corona virus (in words) [12]: lack of activity
EC90 ([12]; Human coronavirus 229E): > 100 µM
CC50 [13]: 75 to 100 µM
CC50 at 4 days [14]: > 100 µM
CC50 at 4 days [15]: > 100 µM
CC50 at 4 days [16]: 75 µM
CC50 at 4 days [17]: > 100 µM
CC50 at 5 days [18]: > 100 µM
CC50 at 3 days [19]: > 100 µM
CC50 at 4 days [20]: > 100 µM
CC50 at 4 days [21]: > 100 µM
Lactic Acid Increase [22]: No effect ≥ 33 μM
IC50 ([22]; Homo sapiens, 168 h, read-out: mtDNA Synthesis (IC50)): > 25 µM
AUC(0-t) ([23]; rhesus monkey, in vivo): 44.2 ± 22.2 µM·h
half-life ([23]; rhesus monkey, in vivo, read-out: T ½ (converted)): 3.9 ± 0.1 h
Bioavailability [23]: 21 ± 11 F %
Cmax [23]: 9.6 ± 2.7 µM
Tmax [23]: 2 ± 1 h
IC50 [24]: 98.2 µM
IC50 [25]: 93.9 µM
CC50 ([26]; African green monkey): > 100 µM
CC50 ([26]; read-out: CC50, CPE, Vero, SARSCoV test): > 100 µM
CC50 ([26]; read-out: CC50, NR, Vero, SARSCoV test, Neutral Red): > 100 µM
CC50 ([26]; read-out: CC50, NR, Vero, VEE test, Neutral Red): > 100 µM
deaths during the 30-day study ([27]; female Swiss mice, intraperitoneal, days 0 to 5, 0, 3.3, 10, 33, 100 mg/kg): no mice died
toxicity observed in the mice ([27]; mouse, in vivo): No significant toxicity
CC50 [28]: > 100 µM
CC50 [29]: > 100 µM
EC90 ([30]; Hepatitis C virus, 96 h, read-out: EC90 (1-log reduction of replicon RNA), 4-days incubation / 96 hours, FIG. 1A (converted)): ~2.5 µM
EC90 ([30]; Hepatitis C virus, read-out: EC90 values, range for the replicon clones, range over replicon clones of Table 1): 1.6 to 4.6 µM
EC90 ([30]; read-out: EC90 (1-log reduction of replicon RNA) (converted), 4-days incubation / 96 hours, FIG. 1A): 5 µM
CC50 [31]: > 100 µM
CC50 [32]: > 100 µM
CC50 ([33]; read-out: CC50, CPE): > 100 µM
CC50 ([33]; read-out: CC50, NR, Neutral Red): > 100 µM

C[C@@]1(F)[C@H](O)[C@@H](COP(=O)(O)OP(=O)(O)OP(=O)(O)O)O[C@H]1n1ccc(N)nc1=O
IC50 ([34]; IC50, Wild-Type NS5B, batch 1): 1.7 ± 0.4 µM
IC50 ([34]; IC50, Wild-Type NS5B, batch 2 and 3): 7.7 ± 1.2 µM
IC50 ([34]; inhibitory concentration 50%, range, NS5B polymerase assay): 1.7 to 7.7 µM

C[C@@]1(O)[C@H](O)[C@@H](CO)O[C@H]1n1cnc2c(N)ncnc21 [2′-C-methyladenosine]
activity on HCV surrogate model BVDV (in words) [8]: greater activity
EC90 ([8]; BVDVcp): 1.5 µM
EC90 ([8]; BVDVncp): 1.2 µM
EC90 [9]: > 100 µM
CC50 at 4 days [14]: 37 µM
CC50 at 4 days [15]: 30 µM
CC50 at 4 days [16]: 58 µM
